Assay results: patent publication US9492471B2, “Methods of treating a disease or disorder associated with Bruton'S Tyrosine Kinase” (Celgene Avilomics Research, Inc., priority 2013, dated 2016)
Like-named read-outs stand apart in the source and are kept apart here.

How the values were obtained:
Test in all cases: HotSpot kinase profiling
Type in all cases: biochemical
DYRK4 = biological target: T1, DYRK4 (Homo sapiens, UniProt Q9NR20)
T1 construct: purchased Reaction Biology Corp
T1 sequence (Q9NR20 1-520): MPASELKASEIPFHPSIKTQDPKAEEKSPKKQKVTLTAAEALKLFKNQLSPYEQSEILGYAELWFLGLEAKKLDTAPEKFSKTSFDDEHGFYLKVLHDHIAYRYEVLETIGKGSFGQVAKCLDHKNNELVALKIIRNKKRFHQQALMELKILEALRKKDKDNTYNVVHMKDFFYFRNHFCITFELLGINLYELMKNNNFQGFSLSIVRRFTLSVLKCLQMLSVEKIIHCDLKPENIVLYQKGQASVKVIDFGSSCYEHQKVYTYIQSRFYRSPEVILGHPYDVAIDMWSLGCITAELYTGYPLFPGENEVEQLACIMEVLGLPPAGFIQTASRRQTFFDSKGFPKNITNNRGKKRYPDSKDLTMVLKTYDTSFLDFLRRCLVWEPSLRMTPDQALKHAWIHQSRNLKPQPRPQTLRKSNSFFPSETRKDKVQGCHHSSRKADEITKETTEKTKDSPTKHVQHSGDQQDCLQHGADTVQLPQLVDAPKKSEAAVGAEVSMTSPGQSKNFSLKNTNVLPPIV
Procedure, shortened: (§1)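 P81 filtration radiometric readout; 2 h incubation at room temperature; 0.1% phosphoric acid wash; DMSO negative control; % inhibition, mean of replicate runs.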

ERK7/MAPK15 = biological target: T2, ERK7/MAPK15 (Homo sapiens, UniProt Q8TD08)
T2 construct: purchased Reaction Biology Corp
T2 sequence (Q8TD08 1-544): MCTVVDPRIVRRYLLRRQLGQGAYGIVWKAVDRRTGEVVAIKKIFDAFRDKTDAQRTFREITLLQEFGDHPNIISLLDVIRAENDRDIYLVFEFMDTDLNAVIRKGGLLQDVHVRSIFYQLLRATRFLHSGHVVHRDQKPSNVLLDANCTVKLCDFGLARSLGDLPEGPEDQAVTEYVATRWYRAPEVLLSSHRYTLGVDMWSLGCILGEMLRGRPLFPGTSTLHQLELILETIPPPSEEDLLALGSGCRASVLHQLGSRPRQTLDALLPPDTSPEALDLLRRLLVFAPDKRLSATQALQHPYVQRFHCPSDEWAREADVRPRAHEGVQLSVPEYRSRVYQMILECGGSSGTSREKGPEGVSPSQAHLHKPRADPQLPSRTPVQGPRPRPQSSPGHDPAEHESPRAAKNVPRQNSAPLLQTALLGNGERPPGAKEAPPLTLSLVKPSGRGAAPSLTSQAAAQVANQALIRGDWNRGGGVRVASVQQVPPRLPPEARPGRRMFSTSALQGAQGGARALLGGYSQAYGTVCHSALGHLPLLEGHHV
Procedure, shortened: as §1

MEK1 = biological target: T3, MEK1 (Homo sapiens, UniProt Q02750)
T3 construct: purchased Reaction Biology Corp
T3 sequence (Q02750 whole entry): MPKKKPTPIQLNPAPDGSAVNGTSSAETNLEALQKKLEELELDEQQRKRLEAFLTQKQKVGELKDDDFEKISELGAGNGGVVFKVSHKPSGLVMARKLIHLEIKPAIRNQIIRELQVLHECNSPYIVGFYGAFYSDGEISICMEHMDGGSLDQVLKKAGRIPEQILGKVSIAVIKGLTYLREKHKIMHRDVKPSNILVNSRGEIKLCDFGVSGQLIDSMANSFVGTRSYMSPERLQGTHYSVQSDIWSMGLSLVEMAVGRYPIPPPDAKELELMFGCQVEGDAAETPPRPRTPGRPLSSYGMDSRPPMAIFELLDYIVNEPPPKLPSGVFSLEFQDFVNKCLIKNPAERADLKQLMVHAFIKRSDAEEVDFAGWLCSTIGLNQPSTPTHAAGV
Procedure, shortened: as §1

TYRO3/SKY = biological target: T4, TYRO3/SKY (Homo sapiens, UniProt Q06418)
T4 construct: purchased Reaction Biology Corp
T4 sequence (Q06418 41-890): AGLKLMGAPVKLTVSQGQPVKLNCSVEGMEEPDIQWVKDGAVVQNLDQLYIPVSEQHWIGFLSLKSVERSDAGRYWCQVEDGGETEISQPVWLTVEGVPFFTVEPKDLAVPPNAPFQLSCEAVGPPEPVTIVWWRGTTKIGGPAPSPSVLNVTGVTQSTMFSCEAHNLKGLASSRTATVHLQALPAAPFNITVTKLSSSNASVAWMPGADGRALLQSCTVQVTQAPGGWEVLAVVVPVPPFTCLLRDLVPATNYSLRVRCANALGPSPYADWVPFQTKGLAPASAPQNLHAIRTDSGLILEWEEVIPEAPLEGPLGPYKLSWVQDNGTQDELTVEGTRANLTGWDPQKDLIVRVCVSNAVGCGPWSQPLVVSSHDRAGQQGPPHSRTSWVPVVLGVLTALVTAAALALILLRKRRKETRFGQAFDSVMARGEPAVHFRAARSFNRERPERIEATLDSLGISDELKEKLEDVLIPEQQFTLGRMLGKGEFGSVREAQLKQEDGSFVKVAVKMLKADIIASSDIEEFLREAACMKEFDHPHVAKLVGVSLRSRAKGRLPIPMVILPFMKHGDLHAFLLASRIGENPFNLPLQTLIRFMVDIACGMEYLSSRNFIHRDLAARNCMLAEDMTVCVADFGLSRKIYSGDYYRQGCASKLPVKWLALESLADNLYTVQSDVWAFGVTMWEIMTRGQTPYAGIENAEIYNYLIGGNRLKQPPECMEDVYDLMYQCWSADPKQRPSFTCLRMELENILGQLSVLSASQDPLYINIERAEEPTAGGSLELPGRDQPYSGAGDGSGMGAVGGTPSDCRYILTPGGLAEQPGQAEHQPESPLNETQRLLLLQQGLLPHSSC
Procedure, shortened: as §1

[1] = read-out: % Enzyme Activity (relative to DMSO controls) Run 1
[2] = read-out: % Enzyme Activity (relative to DMSO controls) Run 2

C=CC(=O)Nc1cccc(Nc2nc(Nc3ccc(OCCOC)c(F)c3)ncc2F)c1 [Compound 2]
inhibition at 3 µM (DYRK4): -5.35% | remaining activity at 3 µM (DYRK4; [1]): 105% | remaining activity at 3 µM (DYRK4; [2]): 106% | inhibition at 3 µM (ERK7/MAPK15): 35.1% | remaining activity at 3 µM (ERK7/MAPK15; [1]): 63.8% | remaining activity at 3 µM (ERK7/MAPK15; [2]): 66% | inhibition at 3 µM (MEK1): -10.3% | remaining activity at 3 µM (MEK1; [1]): 109% | remaining activity at 3 µM (MEK1; [2]): 112% | inhibition at 3 µM (TYRO3/SKY): 4.03% | remaining activity at 3 µM (TYRO3/SKY; [1]): 95.1% | remaining activity at 3 µM (TYRO3/SKY; [2]): 96.8%
